Like-named read-outs stand apart in the source and are kept apart here.
Legend:
[1] = target: T1, mGPR65 (Mus musculus, UniProt Q61038); assay: cAMP detection in HeLa expression cell line, mGPR65; type: cell-based; details: for EC50: read-out: mGPR EC50; for Emax: HeLa, read-out: mGPR Max Activity %; for Emax / mGPR Max Activity: relative to 100uM forskolin (100%) and DMSO (0%)
T1 construct: expressed in transfected cells; host or cells: HeLa (ATCC CCL-2), lentiviral transduction, pLX317
Procedure: (§1) HeLa stable expression cell lines were produced by lentiviral transduction. Briefly, lentiviral plasmids for each GPCR with a C-terminal V5 Tag ([…]) were made in a pLX317 backbone using competent Escherichia coli (New England Biolabs, C3050H). Lenti-X 293 T (Takara, 632810) cells were transfected with the lentiviral plasmids to produce virus. Low-passage HeLa cells (American Type Culture Collection, CCL-2) were then transduced with lentivirus. After 48 hours, HeLa cells were cultured under selection with puromycin (3 μg/ml) and allowed to recover and expand before storing stocks in liquid nitrogen.
(§2) cAMP was measured in cells using the Lance Ultra cAMP Kit. HeLa cells were cultured under puromycin (3 μg/ml) selection. One day before the experiment, cells were seeded in T75 flasks and allowed to adhere overnight. On the day of the experiment, cells were washed twice with Dulbecco’s PBS and lifted using prewarmed 1× versene solution (Gibco, 15040066). Cells were counted in HBSS (Gibco, 14025092) and then resuspended in stimulation buffer prepared according to the manufacturer’s instructions and adjusted to pH 7.2 using 1 M sodium hydroxide. Cells were added to the plate at a density of 1500 cells per well in white opaque 384-well assay ready microplates containing 100 nl of 10 mM compound in DMSO. Cells were stimulated for 30 min at RT, then lysed and incubated with detection reagents for 1 hour in the dark at RT. Plates were read on BMG Labtech PHERAstar FSX (excitation, 337 nm; emission, 620 and 665 nm). Data analysis was performed using GraphPad Prism.

[2] = target: T2, hGPR65 (Homo sapiens, UniProt Q8IYL9); assay: cAMP detection in HeLa expression cell line, hGPR65; type: cell-based; details: for EC50: read-out: hGPR EC50; for Emax: HeLa, relative to 100uM forskolin (100%) and DMSO (0%), read-out: hGPR Max Activity %
T2 construct: expressed in transfected cells; host or cells: HeLa (ATCC CCL-2), lentiviral transduction, pLX317
T2 sequence (Q8IYL9 whole entry): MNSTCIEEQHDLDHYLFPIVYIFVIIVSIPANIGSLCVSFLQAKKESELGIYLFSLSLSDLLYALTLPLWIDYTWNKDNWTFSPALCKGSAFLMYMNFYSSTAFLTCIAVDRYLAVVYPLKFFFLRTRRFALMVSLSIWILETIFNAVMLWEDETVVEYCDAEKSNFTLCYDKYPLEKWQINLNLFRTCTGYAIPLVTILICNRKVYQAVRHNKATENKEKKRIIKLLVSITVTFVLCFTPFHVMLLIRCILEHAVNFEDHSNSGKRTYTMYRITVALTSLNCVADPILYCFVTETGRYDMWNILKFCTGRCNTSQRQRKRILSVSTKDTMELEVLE
Procedure: as §1, §2

[3] = 1st mGPR column pair, NA = no activity
[4] = 2nd mGPR column pair, NA = no activity
[5] = 1st hGPR column pair, NA = no activity
[6] = 2nd hGPR column pair, NA = no activity
[7] = SAR cAMP assay, first EC50/Max pair of hGPR columns
[8] = 3rd mGPR column pair, NA = no activity
[9] = SAR cAMP assay, first EC50/Max pair

T1 sequence (Q61038 whole entry): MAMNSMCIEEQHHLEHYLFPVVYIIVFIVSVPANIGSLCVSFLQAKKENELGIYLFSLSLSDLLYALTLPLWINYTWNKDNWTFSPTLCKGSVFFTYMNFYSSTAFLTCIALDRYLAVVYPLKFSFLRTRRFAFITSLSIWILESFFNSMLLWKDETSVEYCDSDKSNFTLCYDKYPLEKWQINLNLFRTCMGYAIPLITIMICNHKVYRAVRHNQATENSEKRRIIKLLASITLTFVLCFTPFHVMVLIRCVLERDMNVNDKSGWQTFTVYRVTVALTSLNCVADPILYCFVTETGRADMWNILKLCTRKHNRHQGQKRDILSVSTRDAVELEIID

## COCc1ccc(-c2cc(O)n3ncc(C(=O)Nc4ccc(C(=O)OC)cc4)c3n2)cc1 [BRD0592]
[1]; [3]
  EC50: 820 nM
[1]; [4]
  EC50: 563 nM
  Emax: 57%
[1]; NA = no activity
  Emax: 64.1%
[2]; [5]
  EC50: 1270 nM
  Emax: 68.9%
[2]; [6]
  EC50: 1250 nM
  Emax: 68.2%

## Cc1ccc(NC(=O)c2cnn3c(O)cc(-c4ccc(-c5ccccc5O)cc4)nc23)cc1 [BRD1689]
[1]; [3]
  EC50: 1580 nM
[1]; [4]
  EC50: 2040 nM
  Emax: 45.5%
[1]; NA = no activity
  Emax: 54%
[2]; [5]
  EC50: 3570 nM
  Emax: 79%
[2]; [6]
  EC50: 5620 nM
  Emax: 74.3%

## Cc1ccc(NC(=O)c2cnn3c(O)cc(-c4ccc(F)cc4)nc23)cc1 [BRD1827]
[1]; [3]
  EC50: 1370 nM
[1]; [4]
  EC50: 1290 nM
  Emax: 43.8%
[1]; NA = no activity
  Emax: 43.6%
[2]; [5]
  EC50: 635 nM
  Emax: 78%
[2]; [6]
  EC50: 963 nM
  Emax: 77.5%

## COCc1ccc(-c2cc(O)n3ncc(C(=O)Nc4ccc(C(=O)N(C)C)cc4)c3n2)cc1 [BRD1926]
[1]; [3]
  EC50: 21500 nM
[1]; NA = no activity
  Emax: 28.4%
[2]; [5]
  EC50: 34100 nM
  Emax: 11%

## COCc1ccc(-c2cc(O)n3ncc(C(=O)Nc4cccc(C)c4)c3n2)cc1 [BRD1946]
[1]; [3]
  EC50: 501 nM
[1]; [4]
  EC50: 1510 nM
  Emax: 57.2%
[1]; NA = no activity
  Emax: 63.6%
[2]; [5]
  EC50: 4890 nM
  Emax: 80.4%
[2]; [6]
  EC50: 4970 nM
  Emax: 76.2%

## Cc1ccc(NC(=O)c2cnn3c(O)cc(-c4ccc(Cl)cc4)nc23)cc1 [BRD2007]
[1]; [3]
  EC50: 644 nM
[1]; [4]
  EC50: 640 nM
  Emax: 22.7%
[1]; NA = no activity
  Emax: 24.9%
[2]; [5]
  EC50: 409 nM
  Emax: 79.1%
[2]; [6]
  EC50: 247 nM
  Emax: 81.4%

## COCc1ccc(-c2cc(OC)n3ncc(C(=O)Nc4ccc(C)cc4)c3n2)cc1 [BRD2344]
[1]; [3]
  EC50: 737 nM
[1]; NA = no activity
  Emax: 4.13%

## COCc1ccc(-c2cc(O)n3nccc3n2)cc1 [BRD2453]
[2]; [5]
  EC50: 18600 nM
  Emax: 11.7%

## Cc1ccc(NC(=O)c2cnn3c(O)cc(Cc4c[nH]c5ccccc45)nc23)cc1 [BRD2917]
[1]; [3]
  EC50: 18900 nM
[1]; NA = no activity
  Emax: 7.25%

## Cc1ccc(NC(=O)c2cnn3c(O)cc(-c4ccc(Oc5ccccc5)cc4)nc23)cc1 [BRD3067]
[2]; first pair
  Emax: 36.3%
[2]; [7]
  EC50: 11100 nM

## COCc1ccc(-c2cc(O)n3ncc(C(=O)N4CCS(=O)(=O)CC4)c3n2)cc1 [BRD3128]
[2]; [5]
  EC50: 11000 nM
  Emax: 3.44%

## COCc1ccc(-c2cc(O)n3ncc(C(=O)Nc4ccc(F)cc4)c3n2)cc1 [BRD3674]
[1]; [4]
  EC50: 4120 nM
  Emax: 7.69%
[2]; [5]
  EC50: 27900 nM
  Emax: 43.3%

## COCc1ccc(-c2cc(O)n3ncc(C(=O)NCc4ccc(C)cc4)c3n2)cc1 [BRD4305]
[1]; [3]
  EC50: 2310 nM
[1]; [4]
  EC50: 1440 nM
  Emax: 36.9%
[1]; [8]
  EC50: 1070 nM
[1]; NA = no activity
  Emax: 67.8%
  mGPR Max Activity: 60.85%

## Cc1ccc(NC(=O)c2cnn3c(O)cc(-c4ccc(-c5ccc(O)cc5)cc4)nc23)cc1 [BRD4475]
[1]; first pair
  Emax: 30.5%
[1]; [9]
  EC50: 1660 nM
[2]; first pair
  Emax: 22.6%
[2]; [7]
  EC50: 10600 nM

## Cc1ccc(NC(=O)c2cnn3c(O)cc(C(C)Cn4nccc4C)nc23)cc1 (stereo not shown) [BRD4822]
[1]; [3]
  EC50: 2820 nM
[1]; [4]
  EC50: 4330 nM
  Emax: 25.4%
[1]; [8]
  EC50: 1190 nM
[1]; NA = no activity
  Emax: 42%
  mGPR Max Activity: 35.73%

## COc1cc(-c2cc(O)n3ncc(C(=O)Nc4ccc(C)cc4)c3n2)ccc1Cl [BRD5061]
[1]; [3]
  EC50: 794 nM
[1]; [4]
  Emax: 20.1%
[1]; NA = no activity
  Emax: 23.4%
[2]; [5]
  EC50: 942 nM
  Emax: 72.2%
[2]; [6]
  EC50: 1570 nM
  Emax: 60.5%

## Cc1ccc(NC(=O)c2cnn3c(O)cc(-c4ccc(N5CCOCC5)nc4)nc23)cc1 [BRD5064]
[1]; [3]
  EC50: 3410 nM
[1]; [4]
  EC50: 4290 nM
  Emax: 33.9%
[1]; NA = no activity
  Emax: 37.4%
[2]; [5]
  EC50: 5020 nM
  Emax: 56.7%
[2]; [6]
  EC50: 28400 nM
  Emax: 100%

## Cc1ccc(NC(=O)c2cnn3c(O)cc(-c4cnc(N5CCOCC5)c(Cl)c4)nc23)cc1 [BRD5065]
[1]; [3]
  EC50: 513 nM
[1]; [4]
  EC50: 1160 nM
  Emax: 51.8%
[1]; NA = no activity
  Emax: 56.5%
[2]; [5]
  EC50: 2390 nM
  Emax: 49.7%
[2]; [6]
  EC50: 1870 nM
  Emax: 39.5%

## Cc1ccc(NC(=O)c2cnn3c(O)cc(-c4ccc(N5CCN(C)CC5)c(Cl)c4)nc23)cc1 [BRD5068]
[1]; [3]
  EC50: 613 nM
[1]; [4]
  EC50: 1040 nM
  Emax: 66.5%
[1]; NA = no activity
  Emax: 71%
[2]; [5]
  EC50: 1760 nM
  Emax: 53.1%
[2]; [6]
  EC50: 2820 nM
  Emax: 36.9%

## CC(C)OCc1ccc(-c2cc(O)n3ncc(C(=O)Nc4ccccn4)c3n2)cc1 [BRD5074]
[1]; [3]
  EC50: 9320 nM
[1]; NA = no activity
  Emax: 78%
[2]; [5]
  EC50: 7020 nM
  Emax: 84.1%
[2]; [6]
  EC50: 8960 nM
  Emax: 75.9%

## Cc1[nH]c2ccccc2c1Cc1cc(O)n2ncc(C(=O)Nc3ccccc3)c2n1 [BRD5828]
[1]; [3]
  EC50: 649 nM
[1]; [4]
  EC50: 785 nM
  Emax: 18.4%
[1]; NA = no activity
  Emax: 25.8%

## Cc1ccc(NC(=O)c2cnn3c(O)cc(CCc4c(C)n[nH]c4C)nc23)cc1 [BRD5908]
[1]; [3]
  EC50: 33000 nM
[1]; NA = no activity
  Emax: 22.1%

## COc1ccc(-c2ccn3ncc(C(=O)Nc4ccc(C)cc4)c3n2)cc1 [BRD6737]
[2]; [5]
  EC50: 84.4 nM
  Emax: 7.95%

## COc1cccc(Cc2cc(O)n3ncc(C(=O)Nc4ccccc4)c3n2)c1 [BRD7897]
[1]; [3]
  EC50: 6480 nM
[1]; NA = no activity
  Emax: ~22.7%

## Cc1ccc(NC(=O)c2cnn3c(O)cc(-c4ccc(-c5ccc(C(C)C)cc5)cc4)nc23)cc1 [BRD7984]
[1]; first pair
  Emax: 12.4%
[1]; [9]
  EC50: 110 nM

## Cc1ccc(NC(=O)c2cnn3c(O)cc(-c4ccc(N5CCCN(C)CC5)cc4)nc23)cc1 [BRD8425]
[1]; first pair
  Emax: 65.4%

## Cc1ccc(NC(=O)c2cnn3c(O)cc(CCc4c(C)noc4C)nc23)cc1 [BRD8568]
[2]; [5]
  EC50: 3060 nM
  Emax: 3.77%

## CCN1CC(c2cc(O)n3ncc(C(=O)Nc4ccc(Cl)cc4)c3n2)CC1=O (stereo not shown) [BRD8856]
[1]; [3]
  EC50: 662 nM
[1]; NA = no activity
  Emax: 10.9%

## CCOC(=O)c1cnn2c(O)cc(C)nc12 [BRD9804]
[2]; [5]
  EC50: 77600 nM
  Emax: 5.41%

Source: publication PMC11259170, “Small-molecule probe for IBD risk variant GPR65 I231L alters cytokine signaling networks through positive allosteric modulation” (Science Advances, 2024)
